From article PMC12010006, “Subnanomolar MAS-related G protein-coupled receptor-X2/B2 antagonists with efficacy in human mast cells and disease models” (Signal Transduction and Targeted Therapy, 2025)

How the values were obtained:
MRGPRX2 = biological target: T1, MRGPRX2 (Homo sapiens, UniProt Q96LB1); assay: TRUPATH Gαq dissociation assay, LN229 cells expressing MRGPRX2; format: cell-based; parameters: expressed in transfected cells; host or cells: LN229 human glioblastoma cells; plasmid pLXSN-MRGPRX2 (Addgene #213960); conditions: 100 nM, preincubation
T1 sequence (Q96LB1 1-330): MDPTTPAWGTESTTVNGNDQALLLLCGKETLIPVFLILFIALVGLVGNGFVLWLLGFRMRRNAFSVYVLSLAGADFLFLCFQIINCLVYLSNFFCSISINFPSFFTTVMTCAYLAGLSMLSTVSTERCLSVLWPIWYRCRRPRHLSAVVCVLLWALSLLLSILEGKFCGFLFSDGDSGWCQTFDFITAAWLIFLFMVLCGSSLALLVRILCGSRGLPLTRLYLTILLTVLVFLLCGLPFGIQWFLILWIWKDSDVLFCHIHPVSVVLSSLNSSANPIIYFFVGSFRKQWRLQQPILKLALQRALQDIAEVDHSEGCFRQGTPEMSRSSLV
Procedure: Fig. 3 Biological characterization of PSB-172656. a Selectivity of PSB-172656 (100 nM) for MRGPRX2 over MRGPRX1, MRGPRX3, and MRGPRX4 measured in β-arrestin assays utilizing β-arrestin-CHO cells with recombinant expression of the respective receptor. MRGPRX1 was activated by BAM-22P (8.5 µM),[19] MRGPRX2 was activated by CST-14 (1 µM), MRGPRX3 was activated by PSB-20294 (10 µM), MRGPRX4 was activated by PSB-18061 (2.6 µM).[44] Data represent mean values ± SEM of 3-4 biological replicates, performed in duplicates. […] Data are means ± SEM of 3 biological replicates, in duplicates. Statistical significance was determined by one-way ANOVA (Tukey’s multiple comparison) test (ns P > 0.05). […] Data are means ± SEM of 3 biological replicates, performed in duplicates. e Shift assay to determine inhibition type of PSB-172656 versus CST-14. […] Extrapolated data were not used for analysis but only shown for a comprehensive view. f Schild plot for the effect of PSB-172656 on the concentration-response curves for CST-14. […]
To further investigate PSB-172656 signaling, direct activation of the relevant G protein subunits, Gαq and Gαi1,[32] was studied. This was assessed using G protein dissociation assays and LN229 cells stably overexpressing MRGPRX2 while transiently expressing the investigated G protein (Fig. 3c, d).[47]

mouse MRGPRB2 = biological target: T2, mouse MRGPRB2 (Mus musculus, UniProt Q3KNA1); assay: Ca2+ assay, 1321N1 astrocytoma cells expressing MRGPRB2; format: cell-based
T2 construct: expressed in transfected cells; host or cells: 1321N1 astrocytoma cells; plasmid pLVX-IRES-MRGPRB2-mCherry (Addgene #213961)
T2 sequence (Q3KNA1 1-338): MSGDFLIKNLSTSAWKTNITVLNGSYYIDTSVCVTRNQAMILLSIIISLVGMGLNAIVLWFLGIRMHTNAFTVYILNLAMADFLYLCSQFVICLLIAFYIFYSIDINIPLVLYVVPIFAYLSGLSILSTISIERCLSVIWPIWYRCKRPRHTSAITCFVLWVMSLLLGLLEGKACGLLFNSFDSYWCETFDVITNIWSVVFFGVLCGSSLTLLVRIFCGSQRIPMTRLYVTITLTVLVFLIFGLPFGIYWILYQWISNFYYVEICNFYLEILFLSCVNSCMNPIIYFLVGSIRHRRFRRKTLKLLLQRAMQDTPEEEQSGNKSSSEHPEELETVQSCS
Procedure: Therefore, we investigated whether the new MRGPRX2 antagonists could also block MRGPRB2. To this end, we used recombinant 1321N1 astrocytoma cells that stably expressed MRGPRB2, employing Ca^2+ assays, and CST-14 as MRGPRX2/MRGPRB2 agonist (EC80 value of 2000 nM).[31]
For MRGPRB2, the pKi values of the compounds were determined using 1321N1 astrocytoma cells recombinantly expressing MRGPRB2 using Ca^2+ assays versus the MRGPRX2/MRGPRB2 agonist CST-14 (EC80 value, 2000 nM). For MRGPRX2, pKi values were determined using Ca^2+ assays performed in LN229 cells recombinantly overexpressing MRGPRX2 versus the agonist CST-14 (EC80 value, 800 nM). b Concentration-response curve of PSB-172656 in Ca^2+ assays using 1321N1 astrocytoma cells expressing MRGPRB2 versus CST-14 (EC80 value, 2000 nM), Ki value 0.302 ± 0.039 nM. Data are generated from 3 biological replicates, determined in duplicates. c A representative trace showing the effect of C48/80 (30 µg/mL) on a mouse tracheal ring in isometric force measurements using a wire-myograph system. d The contraction response of mouse trachea to C48/80 (30 µg/mL) was normalized to the contraction caused by methacholine (10 µM), a muscarinic receptors agonist. […]

CCc1c(C(C)C)[nH]c2nc3cc(F)c(F)cc3n2c1=O [Compound 24, 3-ethyl-7,8-difluoro-2-isopropylbenzo[4,5]imidazo [1,2-a] pyrimidin-4(1H)-one]
inhibition of CST-14-induced Gαq dissociation (MRGPRX2): completely inhibited
fold less potent at MRGPRB2 than at human MRGPRX2 (mouse MRGPRB2; Ca2+ assays): 3 fold
Ki (mouse MRGPRB2; versus CST-14 (EC80 2000 nM)): 0.302 nM
